Assay results as given in patent US10934274B2, “Quinoline derivatives as TAM RTK inhibitors” (Qurient Co., Ltd., priority 2015, dated 2021).

Key:
Met = molecular target: T1, Met (Homo sapiens, UniProt P08581); assay: LanthaScreen Eu kinase binding assay, Met; conditions: Tracer 236, read-out: cMet kinase binding activity (Kd)
T1 construct: purchased Life Technologies
Method: (§1) LanthaScreen® Eu Kinase Binding assays were conducted at Life Technologies using the manufacturer's specifications for each kinase indicated.
(§2) Briefly, the principle behind this assay is based upon the binding and displacement of an Alexa Fluor 647-labeled tracer to the kinase of interest. Binding of the tracer to the kinase is detected using an EU-labeled anti-tag antibody. Simultaneous binding of both the tracer and antibody to the kinase gives rise to a FRET-signal. Binding of an inhibitor to the kinase competes for binding with the tracer, resulting in a loss of FRET-signal.
(§3) Binding Assay Protocol for AXL, Mer, Tyro3 and Met
(§4) A given compound was diluted in DMSO to make a stock compound solution. The stock compound solution was serially diluted over eight steps in DMSO. Each diluted compound solution in DMSO was diluted in kinase buffer. Afterwards four kinds of working solution were prepared. First, Tracer-Working solution consists of Tracer 236 and Kinase Buffer. Second, Axl, Mer, Tyro3 or Met/anti-GST-AB-Working solution contained one of the kinases Axl, Mer, Tyro3, Met or anti-GST-AB (=anti glutathione-S-transferase antibody) in Kinase Buffer. Third, anti-GST-AB-Working solution was made with anti-GST-AB and Kinase Buffer. Last, in the DMSO-Working solution DMSO was added to Kinase Buffer to a final concentration to 3%. Each of the four kinds of working solutions were separately added to the assay plate and then incubated for 1 h at room temperature. After incubation, the assay plate was measured with respect to the FRET-Signal with the EnVision (Perkin Elmer) using the program LanthaHTRF-Assay. Data evaluation was done in the Quattro Workflow software.
(§5) Table 1 summarises the results obtained for AXL, Mer and Tyro3-kinases binding assays; table 2 summarises the results obtained for the Met kinase binding assay.

Axl = molecular target: T2, Axl (Homo sapiens, UniProt P30530); assay: LanthaScreen Eu kinase binding assay, Axl; conditions: Tracer 236
T2 construct: purchased Life Technologies
T2 sequence (P30530 26-894): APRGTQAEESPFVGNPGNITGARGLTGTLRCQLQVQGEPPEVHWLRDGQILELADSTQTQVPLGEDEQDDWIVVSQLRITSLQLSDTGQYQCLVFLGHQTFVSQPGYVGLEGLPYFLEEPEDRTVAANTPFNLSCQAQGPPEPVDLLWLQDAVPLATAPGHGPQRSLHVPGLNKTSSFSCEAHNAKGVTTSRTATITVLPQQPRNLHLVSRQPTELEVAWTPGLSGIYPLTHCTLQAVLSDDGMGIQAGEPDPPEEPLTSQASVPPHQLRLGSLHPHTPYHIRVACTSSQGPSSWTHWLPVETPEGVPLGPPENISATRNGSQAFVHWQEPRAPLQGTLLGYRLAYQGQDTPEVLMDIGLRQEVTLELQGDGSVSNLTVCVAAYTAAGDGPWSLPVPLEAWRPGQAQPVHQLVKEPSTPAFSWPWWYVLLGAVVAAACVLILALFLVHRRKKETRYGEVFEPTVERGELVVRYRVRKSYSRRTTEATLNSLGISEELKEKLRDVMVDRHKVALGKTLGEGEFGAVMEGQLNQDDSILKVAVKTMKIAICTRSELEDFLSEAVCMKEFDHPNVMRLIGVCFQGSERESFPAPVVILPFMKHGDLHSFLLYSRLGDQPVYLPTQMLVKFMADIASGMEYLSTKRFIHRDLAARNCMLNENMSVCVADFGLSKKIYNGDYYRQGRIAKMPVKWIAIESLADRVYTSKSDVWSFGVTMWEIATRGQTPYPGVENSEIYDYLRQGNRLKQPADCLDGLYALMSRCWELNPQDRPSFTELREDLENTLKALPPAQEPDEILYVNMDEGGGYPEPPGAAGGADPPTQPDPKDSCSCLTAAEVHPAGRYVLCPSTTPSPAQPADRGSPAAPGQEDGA
Method: as §1, §2, §3, §4, §5

Mer = molecular target: T3, Mer (Homo sapiens, UniProt Q12866); assay: LanthaScreen Eu kinase binding assay, Mer; conditions: Tracer 236
T3 construct: purchased Life Technologies
T3 sequence (Q12866 21-999): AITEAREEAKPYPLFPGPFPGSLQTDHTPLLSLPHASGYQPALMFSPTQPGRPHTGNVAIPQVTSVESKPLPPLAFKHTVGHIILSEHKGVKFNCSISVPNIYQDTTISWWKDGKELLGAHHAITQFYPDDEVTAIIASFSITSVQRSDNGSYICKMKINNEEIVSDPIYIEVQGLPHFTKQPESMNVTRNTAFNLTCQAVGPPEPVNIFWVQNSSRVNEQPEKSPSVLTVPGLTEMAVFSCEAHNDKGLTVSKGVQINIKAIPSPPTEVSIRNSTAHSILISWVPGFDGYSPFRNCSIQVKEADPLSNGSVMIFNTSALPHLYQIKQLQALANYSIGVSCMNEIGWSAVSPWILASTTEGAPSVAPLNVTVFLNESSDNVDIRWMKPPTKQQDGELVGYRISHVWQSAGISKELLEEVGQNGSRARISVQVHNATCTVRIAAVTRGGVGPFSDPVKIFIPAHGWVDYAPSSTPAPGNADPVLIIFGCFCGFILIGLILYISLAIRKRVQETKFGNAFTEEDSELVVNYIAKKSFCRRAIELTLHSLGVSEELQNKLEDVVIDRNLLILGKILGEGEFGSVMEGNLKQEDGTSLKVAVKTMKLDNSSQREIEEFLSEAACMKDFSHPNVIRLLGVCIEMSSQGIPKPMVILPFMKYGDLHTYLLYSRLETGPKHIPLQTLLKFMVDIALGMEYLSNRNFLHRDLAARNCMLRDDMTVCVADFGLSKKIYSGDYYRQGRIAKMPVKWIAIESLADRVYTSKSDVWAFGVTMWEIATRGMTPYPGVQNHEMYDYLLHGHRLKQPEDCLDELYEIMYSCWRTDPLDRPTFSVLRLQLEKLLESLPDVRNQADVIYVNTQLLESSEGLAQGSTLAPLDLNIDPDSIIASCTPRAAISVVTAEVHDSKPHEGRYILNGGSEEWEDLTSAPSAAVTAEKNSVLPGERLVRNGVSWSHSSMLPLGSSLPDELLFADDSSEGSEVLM
Method: as §1, §2, §3, §4, §5

TYRO3 = molecular target: T4, TYRO3 (Homo sapiens, UniProt Q06418); assay: LanthaScreen Eu kinase binding assay, TYRO3; conditions: Tracer 236
T4 construct: purchased Life Technologies
T4 sequence (Q06418 41-890): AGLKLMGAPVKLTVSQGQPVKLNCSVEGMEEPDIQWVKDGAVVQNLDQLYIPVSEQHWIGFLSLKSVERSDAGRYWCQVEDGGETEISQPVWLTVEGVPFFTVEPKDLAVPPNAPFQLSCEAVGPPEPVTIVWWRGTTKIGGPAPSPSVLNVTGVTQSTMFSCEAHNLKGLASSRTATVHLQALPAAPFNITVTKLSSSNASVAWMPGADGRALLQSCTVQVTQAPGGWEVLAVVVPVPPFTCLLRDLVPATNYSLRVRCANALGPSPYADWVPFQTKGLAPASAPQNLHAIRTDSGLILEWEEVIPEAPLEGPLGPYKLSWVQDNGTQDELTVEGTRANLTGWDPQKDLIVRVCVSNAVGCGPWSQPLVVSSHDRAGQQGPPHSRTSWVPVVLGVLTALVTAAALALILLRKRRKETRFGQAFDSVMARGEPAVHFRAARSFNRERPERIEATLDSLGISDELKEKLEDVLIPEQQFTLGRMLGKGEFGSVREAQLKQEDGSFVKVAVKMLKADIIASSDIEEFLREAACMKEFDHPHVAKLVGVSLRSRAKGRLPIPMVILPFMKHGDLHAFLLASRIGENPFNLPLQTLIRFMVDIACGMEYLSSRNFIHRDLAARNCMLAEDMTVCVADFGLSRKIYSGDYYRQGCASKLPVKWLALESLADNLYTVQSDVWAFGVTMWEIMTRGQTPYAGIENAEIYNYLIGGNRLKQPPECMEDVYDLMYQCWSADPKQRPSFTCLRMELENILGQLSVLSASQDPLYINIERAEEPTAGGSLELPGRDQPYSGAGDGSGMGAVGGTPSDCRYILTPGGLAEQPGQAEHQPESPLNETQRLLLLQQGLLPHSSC
Method: as §1, §2, §3, §4, §5

T1 sequence (P08581 25-1390): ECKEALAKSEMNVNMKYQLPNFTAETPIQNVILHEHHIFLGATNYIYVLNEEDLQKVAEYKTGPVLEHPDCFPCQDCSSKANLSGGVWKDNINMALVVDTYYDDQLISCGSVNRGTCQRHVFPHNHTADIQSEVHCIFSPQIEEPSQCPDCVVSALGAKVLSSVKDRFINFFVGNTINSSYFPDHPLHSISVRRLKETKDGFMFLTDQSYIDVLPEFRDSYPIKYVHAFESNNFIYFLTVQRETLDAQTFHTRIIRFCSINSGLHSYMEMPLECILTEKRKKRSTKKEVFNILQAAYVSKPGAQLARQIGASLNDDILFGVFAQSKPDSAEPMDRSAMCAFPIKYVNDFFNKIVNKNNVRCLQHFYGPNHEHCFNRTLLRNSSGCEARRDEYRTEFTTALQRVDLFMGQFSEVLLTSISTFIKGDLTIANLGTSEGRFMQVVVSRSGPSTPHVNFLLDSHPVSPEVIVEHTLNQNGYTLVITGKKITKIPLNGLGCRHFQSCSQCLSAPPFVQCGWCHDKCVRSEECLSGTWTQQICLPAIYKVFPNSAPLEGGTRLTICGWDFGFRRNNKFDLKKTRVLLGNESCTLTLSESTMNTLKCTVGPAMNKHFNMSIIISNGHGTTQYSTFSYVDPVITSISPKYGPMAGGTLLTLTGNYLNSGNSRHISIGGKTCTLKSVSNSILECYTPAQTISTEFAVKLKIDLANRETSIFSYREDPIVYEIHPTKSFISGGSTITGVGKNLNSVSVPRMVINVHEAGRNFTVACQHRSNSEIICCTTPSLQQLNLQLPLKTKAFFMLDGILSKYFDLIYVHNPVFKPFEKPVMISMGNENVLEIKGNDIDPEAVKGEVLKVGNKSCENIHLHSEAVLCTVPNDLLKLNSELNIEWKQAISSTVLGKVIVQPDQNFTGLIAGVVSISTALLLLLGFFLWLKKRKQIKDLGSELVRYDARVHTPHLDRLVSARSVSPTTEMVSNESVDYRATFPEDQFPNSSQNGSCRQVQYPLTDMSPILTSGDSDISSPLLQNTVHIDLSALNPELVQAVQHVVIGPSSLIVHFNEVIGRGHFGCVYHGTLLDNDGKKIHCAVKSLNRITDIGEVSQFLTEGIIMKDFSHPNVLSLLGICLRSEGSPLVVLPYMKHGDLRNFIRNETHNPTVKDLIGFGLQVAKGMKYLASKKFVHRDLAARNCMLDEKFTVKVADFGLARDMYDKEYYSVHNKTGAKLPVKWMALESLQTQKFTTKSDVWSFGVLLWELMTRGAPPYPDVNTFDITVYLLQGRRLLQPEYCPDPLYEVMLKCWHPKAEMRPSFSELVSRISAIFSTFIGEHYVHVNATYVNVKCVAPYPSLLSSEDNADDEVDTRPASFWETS

SMILES | Kd (Met) | Kd (Axl) | Kd (Mer) | Kd (TYRO3)
CCOc1cnn(-c2ccc(Cl)cc2C(F)(F)F)c1C(=O)Nc1ccc(Oc2ccnc3cc(OC)c(OC)cc23)cn1 [Compound 103] | 0.1 to 1 µM | 0.1 to 1 µM | 0.1 to 1 µM | 0.1 to 1 µM
CCOc1cn(-c2cnc(N)nc2)nc1C(=O)Nc1ccc(Oc2ccnc3cc(OC)c(OC)cc23)c(Cl)c1 [Compound 146] | < 0.1 µM | < 0.1 µM | < 0.1 µM | < 0.1 µM
CCOc1cnn(-c2ccoc2)c1C(=O)Nc1ccc(Oc2ccnc3cc(OC)c(OC)cc23)cn1 [Compound 25] | ≥ 1 µM | 0.1 to 1 µM | ≥ 1 µM | ≥ 1 µM
COc1cc2nccc(Oc3ccc(NC(=O)c4nn(-c5ccc(F)cc5-c5ccccc5)cc4OCC4CC4)nc3)c2cc1OC [Compound 275] | 0.1 to 1 µM | 0.1 to 1 µM | 0.1 to 1 µM | 0.1 to 1 µM
CCOc1cn(-c2ncc(Cl)cc2CN)nc1C(=O)Nc1ccc(Oc2ccnc3cc(OC)c(OC)cc23)cn1 [Compound 134] | < 0.1 µM | 0.1 to 1 µM | < 0.1 µM | ≥ 1 µM
CCOc1cn(CCC(=O)NC)nc1C(=O)Nc1ccc(Oc2ccnc3cc(OC)c(OC)cc23)cn1 [Compound 67] | 0.1 to 1 µM | 0.1 to 1 µM | < 0.1 µM | 0.1 to 1 µM
CCOc1cn(CC2CCN(C)CC2)nc1C(=O)Nc1ccc(Oc2ccnc3cc(OC)c(OC)cc23)cc1F [Compound 219] | 0.1 to 1 µM | 0.1 to 1 µM | 0.1 to 1 µM | 0.1 to 1 µM
CCOc1cnn(CCc2cccnc2)c1C(=O)Nc1ccc(Oc2ccnc3cc(OC)c(OC)cc23)cn1 [Compound 95] | < 0.1 µM | 0.1 to 1 µM | < 0.1 µM | 0.1 to 1 µM
CCOc1cnn(CCOC(F)F)c1C(=O)Nc1ccc(Oc2ccnc3cc(OC)c(OC)cc23)cn1 [Compound 78] | 0.1 to 1 µM | ≥ 1 µM | 0.1 to 1 µM | ≥ 1 µM
CCOc1nn(-c2cccnc2)cc1C(=O)Nc1ccc(Oc2ccnc3cc(OC)c(OC)cc23)cn1 [Compound 46] | ≥ 1 µM | ≥ 1 µM | ≥ 1 µM | ≥ 1 µM
CCOc1cnn(-c2cnc(C(F)(F)F)nc2)c1C(=O)Nc1ccc(Oc2ccnc3cc(OC)c(OC)cc23)cn1 [Compound 145] | ≥ 1 µM | ≥ 1 µM | ≥ 1 µM | ≥ 1 µM
CCC(C)Oc1cc2nccc(Oc3ccc(NC(=O)c4c(OCC(F)(F)F)cnn4-c4cnc(N)nc4)nc3)c2cc1OC (stereo not shown) [Compound 238] | ≥ 1 µM | ≥ 1 µM | 0.1 to 1 µM | ≥ 1 µM
CCOc1cn(CC(=O)O)nc1C(=O)Nc1ccc(Oc2ccnc3cc(OC)c(OC)cc23)cn1 [Compound 62] | ≥ 1 µM | 0.1 to 1 µM | < 0.1 µM | ≥ 1 µM
CCOc1cnn(CCN(C)C)c1C(=O)Nc1ccc(Oc2ccnc3cc(OC)c(OC)cc23)cn1 [Compound 52] | ≥ 1 µM | ≥ 1 µM | ≥ 1 µM | ≥ 1 µM
CCOc1cn(-c2cnccc2C)nc1C(=O)NC1CC2(C1)CC(Oc1ccnc3cc(OC)c(OC)cc13)C2 (stereo not shown) [Compound 221] | ≥ 1 µM | ≥ 1 µM | ≥ 1 µM | ≥ 1 µM
CCOc1cn(-c2cnc(N)nc2)nc1C(=O)Nc1ccc(Oc2ccnc3cc(OC)c(OC)cc23)c(C)c1 [Compound 140] | < 0.1 µM | < 0.1 µM | < 0.1 µM | 0.1 to 1 µM
CCOc1cn(-c2cccnc2)nc1C(=O)Nc1ncc(Oc2ccnc3cc(OC)c(OC)cc23)cn1 [Compound 47] | ≥ 1 µM | 0.1 to 1 µM | 0.1 to 1 µM | ≥ 1 µM
CCOc1cnn(-c2ccc(C(C)C)cc2)c1C(=O)Nc1ccc(Oc2ccnc3cc(OC)c(OC)cc23)cn1 [Compound 118] | 0.1 to 1 µM | 0.1 to 1 µM | < 0.1 µM | 0.1 to 1 µM
CCOc1cnn(Cc2cnccn2)c1C(=O)Nc1ccc(Oc2ccnc3cc(OC)c(OC)cc23)cc1F [Compound 217] | 0.1 to 1 µM | ≥ 1 µM | 0.1 to 1 µM | ≥ 1 µM
CCOc1cnn(C2CCN(C)CC2)c1C(=O)Nc1ccc(Oc2ccnc3cc(OC)c(OC)cc23)cc1F [Compound 223] | ≥ 1 µM | ≥ 1 µM | 0.1 to 1 µM | ≥ 1 µM
CCOc1cn(-c2cnc(C(=O)O)nc2)nc1C(=O)Nc1ccc(Oc2ccnc3cc(OC)c(OC)cc23)cn1 [Compound 88] | 0.1 to 1 µM | ≥ 1 µM | 0.1 to 1 µM | ≥ 1 µM
CCOc1cn(-c2ccc(C(C)(C)C)cc2)nc1C(=O)Nc1ccc(Oc2ccnc3cc(OC)c(OC)cc23)cn1 [Compound 121] | 0.1 to 1 µM | 0.1 to 1 µM | < 0.1 µM | ≥ 1 µM
